Legend:
[1] = target: T1, Aminopeptidase N (Sus scrofa, UniProt P15145); test: Inhibition of pig kidney microsomal Aminopeptidase N
T1 sequence (P15145 whole entry): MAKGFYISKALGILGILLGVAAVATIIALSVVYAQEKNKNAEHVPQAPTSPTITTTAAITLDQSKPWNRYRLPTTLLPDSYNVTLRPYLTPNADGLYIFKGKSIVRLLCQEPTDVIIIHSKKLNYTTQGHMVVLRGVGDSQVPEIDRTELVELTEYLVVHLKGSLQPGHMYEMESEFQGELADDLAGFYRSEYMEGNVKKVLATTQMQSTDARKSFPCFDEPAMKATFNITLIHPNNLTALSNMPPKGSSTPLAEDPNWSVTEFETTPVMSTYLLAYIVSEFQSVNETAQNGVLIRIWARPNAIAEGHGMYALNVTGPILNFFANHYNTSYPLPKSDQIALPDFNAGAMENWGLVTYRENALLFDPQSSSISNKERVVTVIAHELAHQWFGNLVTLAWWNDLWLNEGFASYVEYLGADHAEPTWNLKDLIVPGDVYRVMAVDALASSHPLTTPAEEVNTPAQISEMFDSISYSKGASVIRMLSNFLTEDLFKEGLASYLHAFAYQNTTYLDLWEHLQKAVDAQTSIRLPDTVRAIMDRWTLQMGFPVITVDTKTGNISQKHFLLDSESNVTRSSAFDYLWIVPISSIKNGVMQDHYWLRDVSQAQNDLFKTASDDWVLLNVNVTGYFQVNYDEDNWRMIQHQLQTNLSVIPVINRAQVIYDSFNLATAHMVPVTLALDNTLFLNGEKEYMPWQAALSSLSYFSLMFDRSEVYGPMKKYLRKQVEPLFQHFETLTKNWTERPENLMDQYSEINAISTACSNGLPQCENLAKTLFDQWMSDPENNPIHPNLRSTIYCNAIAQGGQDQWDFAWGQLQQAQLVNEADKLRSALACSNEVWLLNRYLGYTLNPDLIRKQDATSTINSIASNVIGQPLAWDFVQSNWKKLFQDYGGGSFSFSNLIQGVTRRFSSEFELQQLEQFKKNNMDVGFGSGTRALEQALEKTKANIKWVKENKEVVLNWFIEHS

[2] = tested on: HL-60; test: cells; conditions: Homo sapiens, HL-60, 48 h
Description: Antiproliferative activity against human HL60 cells after 48 hrs by MTT assay

IC50 [1] [µM]	IC50 [2] [µM]	SMILES
2890	–	N[C@@H](C(=O)NCCCC(=O)O)[C@@H](O)c1ccc([N+](=O)[O-])cc1
1390	–	N[C@@H](C(=O)NCCCCCC(=O)O)[C@@H](O)c1ccc([N+](=O)[O-])cc1
85.6	–	CC(C)C[C@H](NC(=O)[C@H](N)[C@@H](O)c1ccc([N+](=O)[O-])cc1)C(=O)O
140	–	N[C@@H](C(=O)O)[C@@H](O)c1ccc([N+](=O)[O-])cc1
233	–	CCCCNC(=O)[C@H](N)[C@@H](O)c1ccc([N+](=O)[O-])cc1
522	–	CCCCCNC(=O)[C@H](N)[C@@H](O)c1ccc([N+](=O)[O-])cc1
183	–	CCCNC(=O)[C@H](N)[C@@H](O)c1ccc([N+](=O)[O-])cc1
251	–	CC(C)NC(=O)[C@H](N)[C@@H](O)c1ccc([N+](=O)[O-])cc1
160	–	CC(C)[C@H](NC(=O)[C@H](N)[C@@H](O)c1ccc([N+](=O)[O-])cc1)C(=O)O

The next lines start with the compound.

SMILES	IC50 [1] [µM]	IC50 [2] [µM]
N[C@@H](C(=O)N[C@@H](Cc1cc2ccccc2[nH]1)C(=O)O)[C@@H](O)c1ccc([N+](=O)[O-])cc1	162	–
CC(C)C[C@H](NC(=O)[C@H](N)[C@@H](O)c1ccc([N+](=O)[O-])cc1)C(=O)NO	54	–
N[C@@H](C(=O)N[C@@H](Cc1ccccc1)C(=O)O)[C@@H](O)c1ccc([N+](=O)[O-])cc1	60.4	–
N[C@@H](C(=O)NCCc1ccccc1Cl)[C@@H](O)c1ccc([N+](=O)[O-])cc1	137	–
N[C@@H](C(=O)NCCc1ccc(O)cc1)[C@@H](O)c1ccc([N+](=O)[O-])cc1	51.4	–
N[C@@H](C(=O)N[C@H](CO)Cc1ccccc1)[C@@H](O)c1ccc([N+](=O)[O-])cc1	116	–
N[C@@H](C(=O)NCCc1ccc2c(c1)OCO2)[C@@H](O)c1ccc([N+](=O)[O-])cc1	90.3	–
N[C@@H](C(=O)NCc1ccccc1)[C@@H](O)c1ccc([N+](=O)[O-])cc1	170	–
N[C@@H](C(=O)NCc1ccc(F)cc1)[C@@H](O)c1ccc([N+](=O)[O-])cc1	302	–
COc1ccc(CNC(=O)[C@H](N)[C@@H](O)c2ccc([N+](=O)[O-])cc2)cc1	145	–
N[C@@H](C(=O)NCCc1ccccc1)[C@@H](O)c1ccc([N+](=O)[O-])cc1	106	–
N[C@@H](C(=O)N[C@@H](Cc1ccccc1)C(=O)N[C@@H](Cc1ccccc1)C(=O)O)[C@@H](O)c1ccc([N+](=O)[O-])cc1	7.1	2210
N[C@@H](C(=O)N[C@@H](Cc1ccccc1)C(=O)NO)[C@@H](O)c1ccc([N+](=O)[O-])cc1	31.3	–
CC(C)C[C@H](NC(=O)[C@H](N)[C@@H](O)c1ccc([N+](=O)[O-])cc1)C(=O)N[C@@H](Cc1ccccc1)C(=O)O	34.6	2020
N[C@@H](C(=O)NC1CCCCC1)[C@@H](O)c1ccc([N+](=O)[O-])cc1	251	–
CC(C)C[C@H](NC(=O)[C@@H](O)[C@H](N)Cc1ccccc1)C(=O)O [UBENIMEX]	–	1650

Reference: ChEMBL document CHEMBL1137765, “Design and synthesis of novel chloramphenicol amine derivatives as potent aminopeptidase N (APN/CD13) inhibitors” (Bioorg Med Chem, 2009)
